In patent US20240116985A1, “STAPLED PEPTIDES AND METHODS THEREOF” (priority 2020, published 2024):

Assay: CHI Log D procedure
Format: physicochemical
Conditions: for chromatographic logD: pH 7.4, CHI Log D; for CHI Log D: pH 7.4

SMILES | chromatographic logD | CHI Log D
CC(=O)N[C@@H](Cc1ccccc1)C(=O)N[C@@H](CC(=O)O)C(=O)N[C@@H](C)C(=O)N[C@]1(C)CCCCCCC=CCOC(=O)N2CC[C@@](C(=O)N[C@@H](Cc3cccc(C(N)=O)c3)C(=O)N[C@@H](Cc3c[nH]c4ccccc34)C(=O)N[C@@H](CCC(N)=O)C(N)=O)(C2)NC(=O)[C@H](C(C)C)NC(=O)[C@H](Cc2ccccc2)NC(=O)[C@H](C)NC(=O)[C@H](C)NC(=O)[C@H](CC(=O)O)NC(=O)[C@H](CC(=O)O)NC1=O [I-107, Ac-Phe-Asp-Ala-R8-Asp-Asp-Ala-Ala-Phe-Val-PyrS-3CBMF-Trp-Gln-NH2] | 1 | 
CC(=O)N[C@@H](Cc1ccccc1)C(=O)N[C@@H](CC(=O)O)C(=O)N[C@@H](C)C(=O)N[C@]1(C)CCCCCCC=CCOC(=O)N2CC[C@@](C(=O)N[C@@H](Cc3ccccc3)C(=O)N[C@@H](Cc3c[nH]c4ccccc34)C(=O)N[C@@H](CCC(N)=O)C(N)=O)(C2)NC(=O)[C@H](C(C)C)NC(=O)[C@H](Cc2ccccc2)NC(=O)[C@H](C)NC(=O)[C@H](C)NC(=O)[C@H](Cc2cccc3ccccc23)NC(=O)[C@H](CC(=O)O)NC1=O [I-114, Ac-Phe-Asp-Ala-R8-Asp-1NapA-Ala-Ala-Phe-Val-PyrS-Phe-Trp-Gln-NH2] | 2.11 | 
CC(=O)N[C@@H](Cc1ccccc1)C(=O)N[C@@H](CC(=O)O)C(=O)N[C@@H](C)C(=O)N[C@]1(C)CCCCCCC=CCOC(=O)N2CC[C@@](C(=O)N[C@@H](Cc3ccccc3)C(=O)N[C@@H](Cc3c[nH]c4ccccc34)C(=O)N[C@@H](CCC(N)=O)C(N)=O)(C2)NC(=O)[C@H](C(C)C)NC(=O)[C@H](Cc2ccccc2)NC(=O)[C@H](C)NC(=O)[C@H](C)NC(=O)[C@H](Cc2ccc3ccccc3c2)NC(=O)[C@H](CC(=O)O)NC1=O [I-115, Ac-Phe-Asp-Ala-R8-Asp-2NapA-Ala-Ala-Phe-Val-PyrS-Phe-Trp-Gln-NH2] |  | 2.145
CC(=O)N[C@@H](Cc1ccccc1)C(=O)N[C@@H](CC(=O)O)C(=O)N[C@@H](C)C(=O)N[C@]1(C)CCCCCCC=CCOC(=O)N2CC[C@@](C(=O)N[C@@H](Cc3ccccc3)C(=O)N[C@@H](Cc3c[nH]c4ccccc34)C(=O)N[C@@H](CCC(N)=O)C(N)=O)(C2)NC(=O)[C@H](C(C)C)NC(=O)[C@H](CCc2ccccc2)NC(=O)[C@H](C)NC(=O)[C@H](C)NC(=O)[C@H](CC(=O)O)NC(=O)[C@H](CC(=O)O)NC1=O [I-118, Ac-Phe-Asp-Ala-R8-Asp-Asp-Ala-Ala-hPhe-Val-PyrS-Phe-Trp-Gln-NH2] |  | 1.545
CC(=O)N[C@@H](Cc1ccccc1)C(=O)N[C@@H](CC(=O)O)C(=O)N[C@@H](C)C(=O)N[C@]1(C)CCCCCCC=CCOC(=O)N2CC[C@@](C(=O)N[C@@H](Cc3ccccc3)C(=O)N[C@@H](Cc3c[nH]c4ccccc34)C(=O)N[C@@H](CCC(N)=O)C(N)=O)(C2)NC(=O)[C@H](C(C)C)NC(=O)[C@H](CCc2ccc(O)cc2)NC(=O)[C@H](C)NC(=O)[C@H](C)NC(=O)[C@H](CC(=O)O)NC(=O)[C@H](CC(=O)O)NC1=O [I-120, Ac-Phe-Asp-Ala-R8-Asp-Asp-Ala-Ala-hTyr-Val-PyrS-Phe-Trp-Gln-NH2] |  | 1.243
CC(=O)N[C@@H](Cc1ccccc1)C(=O)N[C@@H](CC(=O)O)C(=O)N[C@@H](C)C(=O)N[C@]1(C)CCCCCCC=CCOC(=O)N2CC[C@@](C(=O)N[C@@H](CC(=O)O)C(=O)N[C@@H](Cc3c[nH]c4ccccc34)C(=O)N[C@@H](CCC(N)=O)C(N)=O)(C2)NC(=O)[C@H](C(C)C)NC(=O)[C@H](Cc2ccccc2)NC(=O)[C@H](C)NC(=O)[C@H](C)NC(=O)[C@H](CC(=O)O)NC(=O)[C@H](CC(=O)O)NC1=O [I-121, Ac-Phe-Asp-Ala-R8-Asp-Asp-Ala-Ala-Phe-Val-PyrS-Asp-Trp-Gln-NH2] |  | 0.825
CC(=O)N1CCC[C@]12CC=CCCCC1(CCCC=CCCCCCC[C@@](C)(C(=O)N[C@@H](Cc3ccccc3)C(=O)N[C@@](C)(Cc3c[nH]c4ccccc34)C(=O)N[C@@H](CCC(N)=O)C(N)=O)NC(=O)[C@H](C(C)C)NC(=O)[C@H](Cc3ccccc3)NC(=O)[C@H](C)NC(=O)[C@H](C)NC(=O)[C@H](CCC(=O)O)NC(=O)[C@H](CC(=O)O)NC1=O)NC(=O)[C@H](C)NC(=O)[C@H](CC(=O)O)NC2=O (stereo partly drawn) [I-137, Ac-PL3-Asp-Ala-B5-Asp-Glu-Ala-Ala-Phe-Val-S8-Phe-aMeW-Gln-NH2] |  | 2.174
CC(=O)N1CCC[C@]12CC=CCCCC1(CCCC=CCCCCCC[C@@](C)(C(=O)N[C@@H](Cc3ccccc3)C(=O)NC(Cc3cccc4cc(F)ccc34)C(=O)N[C@@H](CCC(N)=O)C(N)=O)NC(=O)[C@H](C(C)C)NC(=O)[C@H](Cc3ccccc3)NC(=O)[C@H](C)NC(=O)[C@H](C)NC(=O)[C@H](CCC(=O)O)NC(=O)[C@H](CC(=O)O)NC1=O)NC(=O)[C@H](C)NC(=O)[C@H](CC(=O)O)NC2=O (stereo partly drawn) [I-142, Ac-PL3-Asp-Ala-B5-Asp-Glu-Ala-Ala-Phe-Val-S8-Phe-6F1NapA-Gln-NH2] | 2.18 | 
CC(=O)N1CCC[C@]12CC=CCCCC1(CCCC=CCCCCCC[C@@](C)(C(=O)N[C@@H](Cc3ccccc3)C(=O)N[C@@H](Cc3ccc(-c4ccccc4)cc3)C(=O)N[C@@H](CCC(N)=O)C(N)=O)NC(=O)[C@H](C(C)C)NC(=O)[C@H](Cc3ccccc3)NC(=O)[C@H](C)NC(=O)[C@H](C)NC(=O)[C@H](CCC(=O)O)NC(=O)[C@H](CC(=O)O)NC1=O)NC(=O)[C@H](C)NC(=O)[C@H](CC(=O)O)NC2=O (stereo partly drawn) [I-145, Ac-PL3-Asp-Ala-B5-Asp-Glu-Ala-Ala-Phe-Val-S8-Phe-Bip-Gln-NH2] | 2.28 | 
CC(=O)NC(C)(C)C(=O)N[C@@H](CC(=O)O)C(=O)N[C@@H](C)C(=O)N[C@]1(C)CCCCCCC=CCOC(=O)N2CC[C@@](C(=O)N[C@@H](Cc3ccccc3)C(=O)N[C@@H](Cc3c[nH]c4ccccc34)C(=O)N[C@@H](CCC(N)=O)C(N)=O)(C2)NC(=O)[C@H](C(C)C)NC(=O)[C@H](Cc2ccccc2)NC(=O)[C@H](C)NC(=O)[C@H](C)NC(=O)[C@H](CCC(=O)O)NC(=O)[C@H](CC(=O)O)NC1=O [I-157, Ac-Aib-Asp-Ala-R8-Asp-Glu-Ala-Ala-Phe-Val-PyrS-Phe-Trp-Gln-NH2] |  | 1.202
CC(=O)N[C@@H](Cc1ccccc1)C(=O)N[C@@H](CC(=O)O)C(=O)N[C@@H](C)C(=O)N[C@]1(C)CCCCCCC=CCOC(=O)N2CC[C@@](C(=O)N[C@@H](Cc3ccccc3)C(=O)N[C@@H](Cc3c[nH]c4ccccc34)C(=O)N[C@@H](CCC(N)=O)C(N)=O)(C2)NC(=O)[C@H](CO)NC(=O)[C@H](Cc2ccccc2)NC(=O)[C@H](C)NC(=O)[C@H](C)NC(=O)[C@H](CC(=O)O)NC(=O)[C@H](CC(=O)O)NC1=O [I-163, Ac-Phe-Asp-Ala-R8-Asp-Asp-Ala-Ala-Phe-Ser-PyrS-Phe-Trp-Gln-NH2] |  | 1.29
CC(=O)N[C@@H](Cc1ccccc1)C(=O)N[C@@H](CC(=O)O)C(=O)N[C@@H](C)C(=O)N[C@]1(C)CCCCCCC=CCOC(=O)N2CC[C@@](C(=O)N[C@@H](Cc3ccccc3)C(=O)N[C@@H](Cc3c[nH]c4ccccc34)C(=O)N[C@@H](CCC(N)=O)C(N)=O)(C2)NC(=O)[C@H](CO)NC(=O)[C@H](Cc2ccccc2)NC(=O)[C@H](C)NC(=O)[C@H](C)NC(=O)[C@H](CC(=O)O)NC(=O)[C@H](CC(=O)O)NC1=O [I-164, Ac-Phe-Asp-Ala-R8-Asp-Asp-Ala-Ala-Phe-Ser-PyrS-Phe-Trp-Gln-NH2] |  | 1.359

Continued, values first:

chromatographic logD | CHI Log D | SMILES
2.22 |  | CC(=O)N1CCC[C@]12CC=CCCCC1(CCCC=CCCCCCC[C@@](C)(C(=O)N[C@@H](Cc3ccccc3)C(=O)N[C@@H](Cc3c[nH]c4ccccc34)C(N)=O)NC(=O)[C@H](C(C)C)NC(=O)[C@H](Cc3ccccc3)NC(=O)[C@H](C)NC(=O)[C@H](C)NC(=O)[C@H](CCC(=O)O)NC(=O)[C@H](CC(=O)O)NC1=O)NC(=O)[C@H](C)NC(=O)[C@H](CC(=O)O)NC2=O (stereo partly drawn) [I-128, Ac-PL3-Asp-Ala-B5-Asp-Glu-Ala-Ala-Phe-Val-S8-Phe-Trp-NH2]
 | 1.27 | CC[C@H](C)[C@H](NC(=O)[C@H](CC(=O)O)NC(C)=O)C(=O)N[C@]1(C)CCN(C)C(=O)OCC=CCCCCC[C@@](C)(C(=O)N[C@@H](Cc2ccccc2)C(=O)N[C@@H](Cc2c[nH]c3ccccc23)C(=O)N[C@@H](Cc2c[nH]cn2)C(N)=O)NC(=O)[C@H](CCC(N)=O)NC(=O)[C@H](Cc2ccccc2)NC(=O)[C@H](C)NC(=O)[C@H](C)NC(=O)[C@H](CC(=O)O)NC(=O)[C@H](CC(=O)O)NC1=O [I-149, Ac-Asp-Ile-RdN-Asp-Asp-Ala-Ala-Phe-Gln-S7-Phe-Trp-His-NH2]
 | 1.426 | CC[C@H](C)[C@H](NC(=O)[C@H](CC(=O)O)NC(=O)[C@H](C)NC(C)=O)C(=O)N[C@]1(C)CCN(C)C(=O)OCC=CCCCCC[C@@](C)(C(=O)N[C@@H](Cc2ccccc2)C(=O)N[C@@H](Cc2c[nH]c3ccccc23)C(=O)N[C@@H](C)C(N)=O)NC(=O)[C@H](C)NC(=O)[C@H](Cc2ccccc2)NC(=O)[C@H](C)NC(=O)[C@H](C)NC(=O)[C@H](CCC(=O)O)NC(=O)[C@H](CC(=O)O)NC1=O [I-154, Ac-Ala-Asp-Ile-RdN-Asp-Glu-Ala-Ala-Phe-Ala-S7-Phe-Trp-Ala-NH2]
 | 1.452 | CC(=O)NC(C)(C)C(=O)N[C@@H](CC(=O)O)C(=O)N[C@@H](C)C(=O)N[C@]1(C)CCCCCCC=CCOC(=O)N2CC[C@@](C(=O)N[C@@H](Cc3ccccc3)C(=O)N[C@@H](Cc3c[nH]c4ccccc34)C(=O)NC(C)(C)C(N)=O)(C2)NC(=O)[C@H](C(C)C)NC(=O)[C@H](Cc2ccccc2)NC(=O)[C@H](C)NC(=O)[C@H](C)NC(=O)[C@H](CCC(=O)O)NC(=O)[C@H](CC(=O)O)NC1=O [I-159, Ac-Aib-Asp-Ala-R8-Asp-Glu-Ala-Ala-Phe-Val-PyrS-Phe-Trp-Aib-NH2]
 | 2.138 | CC(=O)N1CCC[C@]12CC=CCCCC1(CCCC=CCCCCCC[C@@](C)(C(=O)N[C@@H](Cc3ccccc3)C(=O)N[C@@H](Cc3c[nH]c4ccc(C5CC5)cc34)C(=O)N[C@@H](CCC(N)=O)C(N)=O)NC(=O)[C@H](C(C)C)NC(=O)[C@H](Cc3ccccc3)NC(=O)[C@H](C)NC(=O)[C@H](C)NC(=O)[C@H](CCC(=O)O)NC(=O)[C@H](CC(=O)O)NC1=O)NC(=O)[C@H](C)NC(=O)[C@H](CC(=O)O)NC2=O (stereo partly drawn) [I-170, Ac-PL3-Asp-Ala-B5-Asp-Glu-Ala-Ala-Phe-Val-S8-Phe-5CpW-Gln-NH2]
